PubChem BioAssay (NCI)
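Protocol summary: plate cells (96-well), add compound at 5 concentrations, incubate 48 h, interpolate endpoints linearly. TGI: total growth inhibition.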

Legend:
Test in all cases: NCI-60 cell line screen, 48 h
786-0 renal = system: 786-0 renal
A498 renal = system: A498 renal
A549 NSCLC = system: A549 NSCLC
ACHN renal = system: ACHN renal
BT-549 breast = system: BT-549 breast
CAKI-1 renal = system: CAKI-1 renal
CCRF-CEM leukemia = system: CCRF-CEM leukemia
COLO 205 colon = system: COLO 205 colon
DU-145 prostate = system: DU-145 prostate
EKVX NSCLC = system: EKVX NSCLC
HCC-2998 colon = system: HCC-2998 colon
HCT-116 colon = system: HCT-116 colon
HCT-15 colon = system: HCT-15 colon
HL-60(TB) leukemia = system: HL-60(TB) leukemia
HOP-62 NSCLC = system: HOP-62 NSCLC
HS 578T breast = system: HS 578T breast
HT29 colon = system: HT29 colon
IGROV1 ovarian = system: IGROV1 ovarian
K-562 leukemia = system: K-562 leukemia
KM12 colon = system: KM12 colon
LOX IMVI melanoma = system: LOX IMVI melanoma
M14 melanoma = system: M14 melanoma
MALME-3M melanoma = system: MALME-3M melanoma
MCF7 breast = system: MCF7 breast
MDA-MB-231 breast = system: MDA-MB-231 breast
MDA-MB-435 = system: MDA-MB-435
MDA-N = system: MDA-N
MOLT-4 leukemia = system: MOLT-4 leukemia
NCI-H226 lung = system: NCI-H226 lung
NCI-H23 lung = system: NCI-H23 lung
NCI-H460 lung = system: NCI-H460 lung
NCI-H522 lung = system: NCI-H522 lung
NCI/ADR-RES ovarian = system: NCI/ADR-RES ovarian
OVCAR-3 ovarian = system: OVCAR-3 ovarian
OVCAR-4 ovarian = system: OVCAR-4 ovarian
OVCAR-5 ovarian = system: OVCAR-5 ovarian
OVCAR-8 ovarian = system: OVCAR-8 ovarian
PC-3 prostate = system: PC-3 prostate
RPMI-8226 leukemia = system: RPMI-8226 leukemia
RXF 393 renal = system: RXF 393 renal
SF-268 CNS = system: SF-268 CNS
SF-295 CNS = system: SF-295 CNS
SF-539 CNS = system: SF-539 CNS
SK-MEL-2 melanoma = system: SK-MEL-2 melanoma
SK-MEL-28 melanoma = system: SK-MEL-28 melanoma
SK-MEL-5 melanoma = system: SK-MEL-5 melanoma
SK-OV-3 ovarian = system: SK-OV-3 ovarian
SN12C renal = system: SN12C renal
SNB-19 CNS = system: SNB-19 CNS
SNB-75 CNS = system: SNB-75 CNS
SR leukemia = system: SR leukemia
SW-620 colon = system: SW-620 colon
T-47D breast = system: T-47D breast
U251 CNS = system: U251 CNS
UACC-257 melanoma = system: UACC-257 melanoma
UACC-62 melanoma = system: UACC-62 melanoma
UO-31 renal = system: UO-31 renal
TK-10 renal = system: TK-10 renal

For COc1cccc(/C=C2\SC(=S)N(/C=C3\C(=O)Oc4ccccc4C3=O)C2=O)c1O, the TGI (786-0 renal) was over 100 µM, the TGI (A498 renal) was 48 µM and the TGI (A549 NSCLC) was over 100 µM. For the same compound, the TGI (ACHN renal) was over 100 µM, the TGI (BT-549 breast) was 55.6 µM and the TGI (CAKI-1 renal) was over 100 µM. For the same compound, the TGI (CCRF-CEM leukemia) was over 100 µM, the TGI (COLO 205 colon) was over 100 µM and the TGI (DU-145 prostate) was over 100 µM. The TGI (EKVX NSCLC) was over 100 µM, the TGI (HCC-2998 colon) was 87 µM and the TGI (HCT-116 colon) was over 100 µM. For the same compound, the TGI (HCT-15 colon) was over 100 µM, the TGI (HL-60(TB) leukemia) was over 100 µM and the TGI (HOP-62 NSCLC) was over 100 µM. The TGI (HS 578T breast) was 82.3 µM, the TGI (HT29 colon) was over 100 µM and the TGI (IGROV1 ovarian) was over 100 µM. For the same compound, the TGI (K-562 leukemia) was over 100 µM, the TGI (KM12 colon) was over 100 µM and the TGI (LOX IMVI melanoma) was over 100 µM. For the same compound, the TGI (M14 melanoma) was over 100 µM, the TGI (MALME-3M melanoma) was over 100 µM and the TGI (MCF7 breast) was over 100 µM. It also gave a TGI (MDA-MB-231 breast) of over 100 µM, a TGI (MDA-MB-435) of 75.6 µM and a TGI (MDA-N) of over 100 µM. For the same compound, the TGI (MOLT-4 leukemia) was over 100 µM, the TGI (NCI-H226 lung) was over 100 µM and the TGI (NCI-H23 lung) was over 100 µM. For the same compound, the TGI (NCI-H460 lung) was over 100 µM, the TGI (NCI-H522 lung) was over 100 µM and the TGI (NCI/ADR-RES ovarian) was over 100 µM. For the same compound, the TGI (OVCAR-3 ovarian) was 95.7 µM, the TGI (OVCAR-4 ovarian) was over 100 µM and the TGI (OVCAR-5 ovarian) was over 100 µM. It also gave a TGI (OVCAR-8 ovarian) of over 100 µM, a TGI (PC-3 prostate) of over 100 µM and a TGI (RPMI-8226 leukemia) of 80.3 µM. It also gave a TGI (RXF 393 renal) of over 100 µM, a TGI (SF-268 CNS) of over 100 µM and a TGI (SF-295 CNS) of over 100 µM. It also gave a TGI (SF-539 CNS) of 83.2 µM, a TGI (SK-MEL-2 melanoma) of over 100 µM and a TGI (SK-MEL-28 melanoma) of over 100 µM. The TGI (SK-MEL-5 melanoma) was over 100 µM, the TGI (SK-OV-3 ovarian) was over 100 µM and the TGI (SN12C renal) was over 100 µM. It also gave a TGI (SNB-19 CNS) of over 100 µM, a TGI (SNB-75 CNS) of over 100 µM and a TGI (SR leukemia) of over 100 µM. It also gave a TGI (SW-620 colon) of over 100 µM, a TGI (T-47D breast) of over 100 µM and a TGI (U251 CNS) of over 100 µM. It also gave a TGI (UACC-257 melanoma) of over 100 µM, a TGI (UACC-62 melanoma) of over 100 µM and a TGI (UO-31 renal) of 48.2 µM.

COc1ccc(C(OCC2OC3(COC(c4ccccc4)(c4ccc(OC)cc4)c4ccc(OC)cc4)C(Oc4nc(=O)ccn43)C2O)(c2ccccc2)c2ccc(OC)cc2)cc1 (stereo unspecified) was tested, and the TGI (786-0 renal) was over 100 µM, the TGI (A549 NSCLC) was over 100 µM and the TGI (ACHN renal) was over 100 µM. It also gave a TGI (BT-549 breast) of over 100 µM, a TGI (CAKI-1 renal) of over 100 µM and a TGI (CCRF-CEM leukemia) of over 100 µM. The TGI (COLO 205 colon) was over 100 µM, the TGI (DU-145 prostate) was over 100 µM and the TGI (EKVX NSCLC) was over 100 µM. It also gave a TGI (HCT-116 colon) of over 100 µM, a TGI (HCT-15 colon) of over 100 µM and a TGI (HL-60(TB) leukemia) of over 100 µM. The TGI (HOP-62 NSCLC) was over 100 µM, the TGI (HS 578T breast) was 51.8 µM and the TGI (HT29 colon) was over 100 µM. For the same compound, the TGI (IGROV1 ovarian) was over 100 µM, the TGI (K-562 leukemia) was over 100 µM and the TGI (KM12 colon) was over 100 µM. It also gave a TGI (LOX IMVI melanoma) of over 100 µM, a TGI (M14 melanoma) of over 100 µM and a TGI (MALME-3M melanoma) of over 100 µM. The TGI (MCF7 breast) was over 100 µM, the TGI (MDA-MB-231 breast) was over 100 µM and the TGI (MDA-MB-435) was over 100 µM. The TGI (MDA-N) was over 100 µM, the TGI (MOLT-4 leukemia) was over 100 µM and the TGI (NCI-H226 lung) was over 100 µM. It also gave a TGI (NCI-H23 lung) of over 100 µM, a TGI (NCI-H522 lung) of over 100 µM and a TGI (NCI/ADR-RES ovarian) of over 100 µM. For the same compound, the TGI (OVCAR-3 ovarian) was over 100 µM, the TGI (OVCAR-4 ovarian) was over 100 µM and the TGI (OVCAR-5 ovarian) was over 100 µM. It also gave a TGI (OVCAR-8 ovarian) of over 100 µM, a TGI (PC-3 prostate) of over 100 µM and a TGI (RPMI-8226 leukemia) of over 100 µM. It also gave a TGI (RXF 393 renal) of over 100 µM, a TGI (SF-268 CNS) of over 100 µM and a TGI (SF-295 CNS) of over 100 µM. It also gave a TGI (SF-539 CNS) of over 100 µM, a TGI (SK-MEL-2 melanoma) of over 100 µM and a TGI (SK-MEL-28 melanoma) of over 100 µM. The TGI (SK-MEL-5 melanoma) was over 100 µM, the TGI (SK-OV-3 ovarian) was over 100 µM and the TGI (SN12C renal) was over 100 µM. It also gave a TGI (SNB-19 CNS) of over 100 µM, a TGI (SR leukemia) of over 100 µM and a TGI (SW-620 colon) of over 100 µM. The TGI (T-47D breast) was over 100 µM, the TGI (TK-10 renal) was over 100 µM and the TGI (U251 CNS) was over 100 µM. For the same compound, the TGI (UACC-257 melanoma) was over 100 µM, the TGI (UACC-62 melanoma) was over 100 µM and the TGI (UO-31 renal) was over 100 µM.
